Assay results from patent publication EP4786540A1, “POLYMER COMPOSITION AND METHOD FOR PRODUCING SAME, FORMULATION, CROSSLINKED PRODUCT, AND TIRE” (priority 2023, dated 2025).

How the values were obtained:
[1] = pH of the acid forming the acid component (pH meter, 20°C); assay type: physicochemical; details: organic acid 1.0 g in purified water 1.0 L, inorganic acid 0.1-mol/L aqueous solution, for a salt, pH of the acid forming it
Protocol: No particular limitation is imposed on the acidity of the acid forming the acid component (B), which is specifically the pH of the acid forming the acid component (B) at 20°C, is for example, 1 to 6. […] When the acid component (B) is an inorganic acid, the pH corresponds to a value measured by use of a […] aqueous solution. In the case of a metal salt of the acid, the pH corresponds to the pH of the acid forming the metal salt thereof.
The pH of a liquid prepared by mixing an acid (1.0 g) and purified water (1.0 L) was measured at 20°C by means of a pH meter (product of HORIBA, Ltd.). In the case of an organic acid salt, the pH of the acid forming the salt was measured.
The pH of a 0.1-mol/L aqueous solution of the acid employed was measured at 20°C in the same manner as employed above.

physchem = assay: physchem
Protocol: The acid component (B) preferably has high solubility in a good solvent for the modified conjugated diene-based polymer (A).
An acid or a metal salt thereof (1.0 g) was added to cyclohexane (1.0 L), and the system was tightly closed. The contents were mixed at 25°C for 5 minutes. The resultant liquid mixture was allowed to stand for 10 minutes, and then the state of the liquid mixture was visually observed.

SMILES	pH [1]	solubility at 5 min (physchem; 25 °C, organic solvent or mixture, thermodynamic from solid) [µg/mL]	solubility in cyclohexane at 25°C (physchem; 1.0 g in 1.0 L cyclohexane, mixed 5 minutes, stood 10 minutes, visual) [g/L]
CCCCC(CC)C(=O)O (centres unmarked) [b-1, 2-ethylhexanonic acid]	3	–	–
O=C(O)c1ccccc1C(=O)O [b-2, phthalic acid]	4	≥ 1000	–
Cl [b-3, hydrochloric acid]	1	–	–
CCCCC(CC)COP(=O)(O)OCC(CC)CCCC (centres unmarked) [b-4, bis(2-ethylhexyl) phosphate]	–	–	≥ 1.0
